From patent US8067424B2, “Selective inhibitors for cyclin-dependent kinases” (Emory University, priority 2007, dated 2011)
Like-named read-outs stand apart in the source and are kept apart here.

What was measured:
Assay type in all cases: biochemical
Src = Src (Homo sapiens, UniProt P12931); assay: Kinase screen: Src assay
Protocol: (§1) Generally, the same procedure was used for all assays. Since the total assay volume was 25.5 microliters, 0.5 microliters of inhibitors at 51× assay concentration were added to the plates before any other addition.
(§2) The basic procedure was to add 0.5 microliters inhibitor/control in DMSO to plate. Fifteen microliters of enzyme/substrate/buffer mix were added and incubated for 5 min. Ten microliters MgATP at the relevant concentration were added and incubated for 30 min. The assay was stopped by adding 5 microliters of 3% orthophosphoric acid. The assay was transferred to a p81 filter plate and read in a scintillation counter of 30 sec/well. Note that this assay procedure was not followed for MKK1, which instead involved a two-step assay, and PKC alpha, which required the addition of lipid vesicles.
(50-1000 cpm/pmole) and incubated for 30 min at room temperature. Assays were stopped by addition of 5 μl of 0.5 M (3%) orthophosphoric acid and then harvested onto P81 Unifilter plates with a wash buffer of 50 mM orthophosphoric acid.

PDK1 = target: T1, PDK1 (Homo sapiens, UniProt O15530); assay: Kinase screen: PDK1 assay
T1 sequence (O15530 1-556): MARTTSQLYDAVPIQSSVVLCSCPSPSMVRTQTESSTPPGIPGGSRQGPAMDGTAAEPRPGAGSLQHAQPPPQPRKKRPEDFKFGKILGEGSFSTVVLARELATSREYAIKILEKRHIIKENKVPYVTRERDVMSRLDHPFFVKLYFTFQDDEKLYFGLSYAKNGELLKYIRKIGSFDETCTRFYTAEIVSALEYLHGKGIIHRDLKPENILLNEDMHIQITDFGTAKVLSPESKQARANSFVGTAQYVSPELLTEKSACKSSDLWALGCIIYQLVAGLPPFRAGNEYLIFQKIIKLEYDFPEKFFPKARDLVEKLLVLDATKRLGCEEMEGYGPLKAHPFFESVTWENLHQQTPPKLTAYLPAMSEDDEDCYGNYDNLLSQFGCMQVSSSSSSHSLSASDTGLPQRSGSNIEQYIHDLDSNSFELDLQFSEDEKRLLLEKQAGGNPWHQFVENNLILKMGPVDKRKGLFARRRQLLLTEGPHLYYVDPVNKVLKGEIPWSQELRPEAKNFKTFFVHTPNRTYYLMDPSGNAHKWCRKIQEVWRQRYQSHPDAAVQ
Protocol: as §1, §2
(50-1000 cpm/pmole) and incubated for 30 min at room temperature Assays were stopped by addition of 5 μl of 0.5 M (3%) orthophosphoric acid and then harvested onto P81 Unifilter plates with a wash buffer of 50 mM orthophosphoric acid.

PKD1 = target: T2, PKD1 (Homo sapiens, UniProt Q15139); assay: Kinase screen: PKD1 assay
T2 sequence (Q15139 1-912): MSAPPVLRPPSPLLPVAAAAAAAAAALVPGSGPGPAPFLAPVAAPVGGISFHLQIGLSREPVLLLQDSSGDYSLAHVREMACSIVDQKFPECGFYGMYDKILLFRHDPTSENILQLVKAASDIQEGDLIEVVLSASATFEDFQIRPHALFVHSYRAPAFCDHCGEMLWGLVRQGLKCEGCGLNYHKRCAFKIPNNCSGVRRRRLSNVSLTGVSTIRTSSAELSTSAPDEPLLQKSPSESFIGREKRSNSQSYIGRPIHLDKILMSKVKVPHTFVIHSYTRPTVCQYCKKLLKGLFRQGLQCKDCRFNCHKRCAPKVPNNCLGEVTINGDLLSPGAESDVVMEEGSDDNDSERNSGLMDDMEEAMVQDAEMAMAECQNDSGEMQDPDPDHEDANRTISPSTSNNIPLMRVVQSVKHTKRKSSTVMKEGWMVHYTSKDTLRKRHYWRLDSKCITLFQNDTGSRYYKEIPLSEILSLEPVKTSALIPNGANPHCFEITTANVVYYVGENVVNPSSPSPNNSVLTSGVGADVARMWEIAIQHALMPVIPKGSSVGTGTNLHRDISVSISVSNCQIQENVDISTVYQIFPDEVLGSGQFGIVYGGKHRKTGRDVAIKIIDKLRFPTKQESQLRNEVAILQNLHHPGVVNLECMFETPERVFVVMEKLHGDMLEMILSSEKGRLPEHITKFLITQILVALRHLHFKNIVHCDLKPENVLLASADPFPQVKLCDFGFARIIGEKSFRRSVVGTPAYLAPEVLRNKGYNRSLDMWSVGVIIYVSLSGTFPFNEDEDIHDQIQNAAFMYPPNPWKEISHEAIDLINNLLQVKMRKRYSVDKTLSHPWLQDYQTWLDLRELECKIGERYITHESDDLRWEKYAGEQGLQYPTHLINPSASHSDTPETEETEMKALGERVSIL
Protocol: as §1, §2
PKD1 assay: PKD1 (5-20 mU diluted in 50 mM Tris pH 7.5, 0.1 mM EGTA, 0.1% b-mercaptoethanol, 1 mg/ml BSA) was assayed substrate peptide ([…]) (SEQ ID NO: 3) in a final volume of 25.5 μl containing 50 mM Tris pH 7.5, 0.05% b-mercaptoethanol, 30 μM substrate peptide, 10 mM magnesium acetate and 0.05 mM [33P-g-ATP] (50-1000 cpm/pmole) and incubated for 30 min at room temperature. Assays were stopped by addition of 5 μl of 0.5 M (3%) orthophosphoric acid and then harvested onto P81 Unifilter plates with a wash buffer of 50 mM orthophosphoric acid.

[1] = 10 micromolar compound, read-out: mean activity remaining (as a percentage of the original activity), Src
[2] = 10 micromolar compound, read-out: mean activity remaining (as a percentage of the original activity), PDK1
[3] = 10 micromolar compound, read-out: mean activity remaining (as a percentage of the original activity), PKD1

Src, sequence (P12931 whole entry, species assumed): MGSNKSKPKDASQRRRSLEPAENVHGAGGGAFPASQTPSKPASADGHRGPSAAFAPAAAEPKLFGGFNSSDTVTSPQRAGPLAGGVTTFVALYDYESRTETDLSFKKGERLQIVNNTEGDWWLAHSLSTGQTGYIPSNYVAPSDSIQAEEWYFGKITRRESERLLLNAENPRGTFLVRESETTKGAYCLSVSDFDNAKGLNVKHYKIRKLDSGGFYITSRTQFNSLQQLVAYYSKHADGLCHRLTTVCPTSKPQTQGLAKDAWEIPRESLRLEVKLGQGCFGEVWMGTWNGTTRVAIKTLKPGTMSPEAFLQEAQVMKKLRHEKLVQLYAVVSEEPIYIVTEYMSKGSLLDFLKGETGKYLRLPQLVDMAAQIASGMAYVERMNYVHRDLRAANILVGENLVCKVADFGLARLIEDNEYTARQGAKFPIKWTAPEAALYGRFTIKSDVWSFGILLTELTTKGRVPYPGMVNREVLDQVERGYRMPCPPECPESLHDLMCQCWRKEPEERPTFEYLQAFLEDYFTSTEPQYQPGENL

SMILES | remaining activity at 10 µM (Src; [1]) [%] | remaining activity at 10 µM (PDK1; [2]) [%] | remaining activity at 10 µM (PKD1; [3]) [%] | also measured
CC[C@H](CO)Nc1cc(NCc2ccccc2)n2ncc(C(C)C)c2n1 [ICEC0067] | 90 | 87 | 87 | –
CC(C)c1cnn2c(NCc3ccccc3F)cc(NCCCCCN)nc12 [ICEC-0232] | – | – | – | mean activity remaining (as a percentage of the original activity), Src (Src; 10 micromolar compound): 96%; mean activity remaining (as a percentage of the original activity), PDK1 (PDK1; 10 micromolar compound): 101%; mean activity remaining (as a percentage of the original activity), PKD1 (PKD1; 10 micromolar compound): 32%
CC(C)c1cnn2c(NCc3ccccc3)cc(NCCCCCCCN)nc12 [BS-181] | – | – | – | remaining activity at 10 µM (Src; Src, 10 μM, read-out: Mean Remaining Enzyme Activity (%)): 88%; remaining activity at 10 µM (PDK1; PDK1, 10 μM, read-out: Mean Remaining Enzyme Activity (%)): 80%; remaining activity at 10 µM (PKD1; PKD1, 10 μM, read-out: Mean Remaining Enzyme Activity (%)): 53%
CC(C)c1cnn2c(NCc3ccccc3)cc(N[C@@H](CO)[C@H](O)CO)nc12 [ICEC0318, (3S)-3-(7-(Benzylamino)-3-isopropylpyrazolo[1,5-a]pyrimidin-5-ylamino)butane-1,2,4-triol] | 95 | 84 | 97 | –
C=C[C@H](CO)Nc1cc(NCc2ccccc2)n2ncc(C(C)C)c2n1 [ICEC0065] | 112 | 78 | 88 | –
